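Protocol summary: plate cells (96-well), add compound at 5 concentrations, incubate 48 h, interpolate endpoints linearly. The concentration for 50% growth inhibition is given as GI50.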 The source made the active and inactive calls. Rule as the data show it: active = GI50 up to about 1.1 µM and inactive = higher.
Columns and labels:
Test in all cases: NCI anticancer screen, dose series, 48 h
MDA-MB-435 = system: MDA-MB-435
U-251 = system: U-251
OVCAR-3 = system: OVCAR-3
NCI-H226 = system: NCI-H226
MDA-N = system: MDA-N
SN12C = system: SN12C
HL-60 = system: HL-60
HCT-15 = system: HCT-15
HCC 2998 = system: HCC 2998
PC-3 = system: PC-3
HOP-92 = system: HOP-92
SK-MEL-5 = system: SK-MEL-5
SF-268 = system: SF-268
UACC-257 = system: UACC-257
Malme-3M = system: Malme-3M
HT-29 = system: HT-29
A498 = system: A498
LOX IMVI = system: LOX IMVI
CCRF-CEM = system: CCRF-CEM
TK-10 = system: TK-10
KM12 = system: KM12
BT-549 = system: BT-549
DU-145 = system: DU-145
MCF7 = system: MCF7
SK-MEL-28 = system: SK-MEL-28
ACHN = system: ACHN
NCI-H460 = system: NCI-H460
NCI-H23 = system: NCI-H23
NCI/ADR-RES = system: NCI/ADR-RES
UACC-62 = system: UACC-62
OVCAR-5 = system: OVCAR-5
MOLT-4 = system: MOLT-4
SK-MEL-2 = system: SK-MEL-2
IGROV-1 = system: IGROV-1
UO-31 = system: UO-31
Hs-578T = system: Hs-578T
SNB-75 = system: SNB-75
RPMI-8226 = system: RPMI-8226
A549 = system: A549
SF-295 = system: SF-295
OVCAR-4 = system: OVCAR-4
MDA-MB-231 = system: MDA-MB-231
SR = system: SR
786-0 = system: 786-0
RXF 393 = system: RXF 393
OVCAR-8 = system: OVCAR-8
COLO 205 = system: COLO 205
HOP-62 = system: HOP-62
SW-620 = system: SW-620
HCT-116 = system: HCT-116
T47D = system: T47D
CAKI-1 = system: CAKI-1
NCI-H522 = system: NCI-H522
EKVX = system: EKVX
K562 = system: K562
SF-539 = system: SF-539
SK-OV-3 = system: SK-OV-3
SNB-19 = system: SNB-19
M14 = system: M14

## CS(=O)(=O)Nc1ccc2c(c1)N(S(C)(=O)=O)CC2COS(C)(=O)=O (stereo not drawn)
MDA-MB-435
  GI50: > 100 µM (inactive)
U-251
  GI50: 25.8 µM (inactive)
OVCAR-3
  GI50: 34.6 µM (inactive)
NCI-H226
  GI50: > 100 µM (inactive)
MDA-N
  GI50: > 100 µM (inactive)
SN12C
  GI50: > 100 µM (inactive)
HL-60
  GI50: 25.2 µM (inactive)
HCT-15
  GI50: > 100 µM
HCC 2998
  GI50: > 100 µM (inactive)
PC-3
  GI50: > 100 µM (inactive)
HOP-92
  GI50: 33.2 µM (inactive)
SK-MEL-5
  GI50: 18.9 µM (inactive)
SF-268
  GI50: > 10 µM (inactive)
UACC-257
  GI50: > 100 µM (inactive)
Malme-3M
  GI50: 39.9 µM (inactive)
HT-29
  GI50: > 100 µM (inactive)
A498
  GI50: 85.9 µM (inactive)
LOX IMVI
  GI50: 70 µM (inactive)
CCRF-CEM
  GI50: 35.8 µM (inactive)
TK-10
  GI50: 36.8 µM (inactive)
KM12
  GI50: > 100 µM (inactive)
BT-549
  GI50: 50.4 µM (inactive)
DU-145
  GI50: 58.9 µM (inactive)
MCF7
  GI50: > 10 µM (inactive)
SK-MEL-28
  GI50: > 100 µM (inactive)
ACHN
  GI50: 35.7 µM (inactive)
NCI-H460
  GI50: 90.8 µM (inactive)
NCI-H23
  GI50: 45.1 µM (inactive)
NCI/ADR-RES
  GI50: > 100 µM (inactive)
UACC-62
  GI50: > 100 µM (inactive)
OVCAR-5
  GI50: 40.5 µM (inactive)
MOLT-4
  GI50: 32.5 µM (inactive)
SK-MEL-2
  GI50: 19.9 µM (inactive)
IGROV-1
  GI50: > 100 µM (inactive)
UO-31
  GI50: > 100 µM (inactive)
Hs-578T
  GI50: 94.2 µM (inactive)
SNB-75
  GI50: 57.7 µM (inactive)
RPMI-8226
  GI50: 25.8 µM (inactive)
A549
  GI50: > 100 µM (inactive)
SF-295
  GI50: 58.7 µM (inactive)
OVCAR-4
  GI50: 76 µM (inactive)
MDA-MB-231
  GI50: > 100 µM (inactive)
SR
  GI50: 23.3 µM (inactive)
786-0
  GI50: 31 µM (inactive)
RXF 393
  GI50: 18.7 µM (inactive)
OVCAR-8
  GI50: 94.4 µM (inactive)
COLO 205
  GI50: > 100 µM (inactive)
HOP-62
  GI50: 31.1 µM (inactive)
SW-620
  GI50: 32.2 µM (inactive)
HCT-116
  GI50: 54.6 µM (inactive)
T47D
  GI50: > 100 µM (inactive)
CAKI-1
  GI50: 24.6 µM (inactive)
NCI-H522
  GI50: 19.7 µM (inactive)
EKVX
  GI50: > 100 µM (inactive)
K562
  GI50: 52.4 µM (inactive)
SF-539
  GI50: 41.9 µM (inactive)

## COc1ccccc1/[N+]([O-])=C/c1ccccc1OC(=S)S
MDA-MB-435
  GI50: 16.7 µM (inactive)
U-251
  GI50: 41.7 µM (inactive)
OVCAR-3
  GI50: 26.2 µM (inactive)
NCI-H226
  GI50: 28.8 µM (inactive)
MDA-N
  GI50: 17.7 µM (inactive)
SN12C
  GI50: 88.1 µM (inactive)
HL-60
  GI50: 25.8 µM (inactive)
SK-OV-3
  GI50: > 100 µM (inactive)
HCT-15
  GI50: 23 µM
HCC 2998
  GI50: 14.7 µM (inactive)
PC-3
  GI50: 34 µM (inactive)
HOP-92
  GI50: 19 µM (inactive)
SK-MEL-5
  GI50: 34.2 µM (inactive)
SF-268
  GI50: 33.7 µM (inactive)
UACC-257
  GI50: 28.1 µM (inactive)
Malme-3M
  GI50: 96.4 µM (inactive)
HT-29
  GI50: > 100 µM (inactive)
A498
  GI50: 32.4 µM (inactive)
LOX IMVI
  GI50: 28.1 µM (inactive)
TK-10
  GI50: > 100 µM (inactive)
KM12
  GI50: 47.6 µM (inactive)
BT-549
  GI50: 25.9 µM (inactive)
DU-145
  GI50: 70.5 µM (inactive)
MCF7
  GI50: 23.7 µM (inactive)
SK-MEL-28
  GI50: > 100 µM (inactive)
ACHN
  GI50: 49.3 µM (inactive)
NCI-H460
  GI50: 64.9 µM (inactive)
NCI-H23
  GI50: 28.2 µM (inactive)
NCI/ADR-RES
  GI50: 30.6 µM (inactive)
UACC-62
  GI50: 32.9 µM (inactive)
OVCAR-5
  GI50: 96.2 µM (inactive)
MOLT-4
  GI50: 27.5 µM (inactive)
SK-MEL-2
  GI50: 21.5 µM (inactive)
IGROV-1
  GI50: 19.6 µM (inactive)
SNB-19
  GI50: 99.3 µM (inactive)
UO-31
  GI50: 31 µM (inactive)
Hs-578T
  GI50: 73.6 µM (inactive)
SNB-75
  GI50: 25.8 µM (inactive)
RPMI-8226
  GI50: 21.8 µM (inactive)
A549
  GI50: > 100 µM (inactive)
SF-295
  GI50: 32.2 µM (inactive)
OVCAR-4
  GI50: 28.3 µM (inactive)
MDA-MB-231
  GI50: 30.9 µM (inactive)
SR
  GI50: 31.5 µM (inactive)
786-0
  GI50: 26.5 µM (inactive)
RXF 393
  GI50: 33.7 µM (inactive)
OVCAR-8
  GI50: 21.7 µM (inactive)
COLO 205
  GI50: 27.4 µM (inactive)
M14
  GI50: 41.1 µM (inactive)
SW-620
  GI50: 44.5 µM (inactive)
HCT-116
  GI50: 42 µM (inactive)
T47D
  GI50: 17.6 µM (inactive)
CAKI-1
  GI50: 58.9 µM (inactive)
NCI-H522
  GI50: 22.3 µM (inactive)
EKVX
  GI50: 30.4 µM (inactive)
K562
  GI50: 29.5 µM (inactive)
SF-539
  GI50: 57.1 µM (inactive)

— ChEMBL document CHEMBL1201862, “PubChem BioAssay data set” (2004)
